Data on 31 compounds can be found in US20230242494A1, “MALONITRILE DERIVATIVES” (Hoffmann-La Roche Inc., priority 2020, published 2023).

Structures are written as SMILES.

This test deals with T1, human cGAS (residues 161-522) (Homo sapiens, UniProt Q8N884).
T1 construct: human cGAS (residues 161-522); made in house
T1 sequence (Q8N884 161-522): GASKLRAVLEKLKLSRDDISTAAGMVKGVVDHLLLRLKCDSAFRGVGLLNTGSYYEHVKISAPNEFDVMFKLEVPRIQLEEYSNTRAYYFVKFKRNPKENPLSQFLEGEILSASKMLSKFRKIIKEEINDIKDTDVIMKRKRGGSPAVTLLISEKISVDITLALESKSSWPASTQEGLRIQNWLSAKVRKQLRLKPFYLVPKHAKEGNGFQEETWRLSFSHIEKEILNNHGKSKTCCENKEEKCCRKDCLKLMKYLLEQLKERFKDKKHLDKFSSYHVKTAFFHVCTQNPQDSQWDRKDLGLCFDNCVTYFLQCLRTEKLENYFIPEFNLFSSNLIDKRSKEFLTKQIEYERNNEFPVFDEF
The test can be described thus: cGAS Activity Assay—Malachite Green. It is filed as biochemical. The conditions noted are these: recombinant purified human cGAS 25 nM; 80 μM ATP, 80 μM GTP, 100 nM ISD; 4 hour at RT; phosphate detection by Malachite Green. As to the method:
Compounds were tested for cGAS inhibition in a coupled enzymatic assay based on Phosphate detection by Malachite Green. Final assay conditions were 20 mM TRIS pH 7.5 (Applichem), 5 mM MgCl2 (Sigma) and 0.01% BSA (Sigma) supplemented with 80 μM ATP (Sigma), 80 μM GTP (Sigma) and 100 nM Interferon Stimulating DNA (ISD) (Microsynth). Recombinantly expressed purified human cGAS (residues 161-522) was used at 25 nM.
All compounds were prepared as 10 mM stock solutions in DMSO and a 16 pt dilution series in DMSO with a dilution factor of 2.5 was prepared. 1 μL of DMSO dilution series was transferred to 32.3 μL reaction buffer, mixed by pipetting up/down, spun for 1 minute at 3000 rpm and was visually inspected for precipitation. 5 μL of 3-fold enzyme stock solution were transferred to an empty 384-well Black/Clear Flat Bottom Polystyrene NBS (Corning) rows 3-24. Rows 1-2 were filled with assay buffer. Plates were spun 10 seconds at 1000 rpm (164×g). 5 μL of compound intermediate dilution was added and mixed by pipetting up/down to rows 3-24. Rows 1-2 were filled with 3.1% DMSO assay buffer. Plates were spun 10 seconds at 1000 rpm (164×g). 5 μL 3-fold Nucleotide/DNA mix was added to all wells to start the reaction. Plates were spun 10 seconds at 1000 rpm (164×g) and incubated for 4 hour at room temperature (RT) in the dark. 5 μL 4 U/ml PPase (Sigma) were added to all wells. Plates spun 10 seconds at 1000 rpm (164×g). 10 μL BioMol green Solution (Enzo Life Sciences) was added to all wells. Plates spun 10 seconds at 1000 rpm (164×g) and incubated 30 minutes at RT in the dark. Absorbance data was collected 620 nm on an EnVision Multilable Reader (Perkin Elmer) and the following measurement settings were used: excitation filter photometric was 620 nm; excitation from the top; measurement height was 1 mm; number of flashes was 30; number of flashes integrated was 1.
All plates are checked for abnormalities and outliers in the Blank Control (no protein, row 1) and the Neutral Control (no compound, row 2) are excluded using the 3*SD rule. Data was normalized to 0 and 100% by Blank and Neutral Control and each curve was fitted and judged using the 4 parameter logistic equation to determine the IC50 for cGAS inhibition.
Table 13 provides IC50 values (μM) for cGAS inhibition obtained for particular examples of the present invention as measured by the above-described assay.
Turning to `Cc1noc(C)c1NS(=O)(=O)c1ccc(NC(=O)/C(C#N)=C(\O)c2cnoc2C)cc1` [Example 59, (Z)-2-cyano-N-(4-(N-(3,5-dimethylisoxazol-4-yl)sulfamoyl)phenyl)-3-hydroxy-3-(5-methylisoxazol-4-yl)acrylamide], the IC50 – broadly, the concentration needed to halve the response being measured – is 0.45 µM.

`Cc1noc(C)c1N(C(=O)c1cnoc1C)S(=O)(=O)c1ccc(NC(=O)/C(C#N)=C(\O)c2cnoc2C)cc1` [Example 60]: the IC50 stood at 0.52 µM.

`Cc1oncc1/C(O)=C(\C#N)C(=O)Nc1ccc(S(C)(=O)=O)cc1Cl` [Example 61, (Z)-N-(2-chloro-4-methylsulfonyl-phenyl)-2-cyano-3-hydroxy-3-(5-methylisoxazol-4-yl)prop-2-enamide]: the IC50 came out at 0.11 µM.

`Cc1oncc1/C(O)=C(\C#N)C(=O)Nc1ccc(Oc2ccccc2)cc1` [Example 62, (Z)-2-cyano-3-hydroxy-3-(5-methylisoxazol-4-yl)-N-(4-phenoxyphenyl)acrylamide]: the IC50 came out at 1.56 µM.

For the compound `Cc1oncc1/C(O)=C(\C#N)C(=O)Nc1ccc(Oc2ccc(Cl)cc2)cc1` [Example 63, (Z)-N-(4-(4-chlorophenoxy)phenyl)-2-cyano-3-hydroxy-3-(5-methylisoxazol-4-yl)acrylamide], the IC50 came to 3.46 µM.

Regarding `Cc1oncc1/C(O)=C(\C#N)C(=O)Nc1ccc(-c2ccccc2)cc1` [Example 64, (Z)-2-cyano-3-hydroxy-3-(5-methylisoxazol-4-yl)-N-(4-phenylphenyl)-prop-2-enamide], the IC50 came out at 1.73 µM.

`Cc1oncc1/C(O)=C(\C#N)C(=O)Nc1ccc(C(F)(F)F)c(Cl)c1` [Example 65, (Z)-N-(3-chloro-4-(trifluoromethyl)phenyl)-2-cyano-3-hydroxy-3-(5-methylisoxazol-4-yl)acrylamide]: the IC50 came to 1.67 µM.

For `Cc1oncc1/C(O)=C(\C#N)C(=O)Nc1ccc(C(F)(F)F)cn1` [Example 66, (Z)-2-cyano-3-hydroxy-3-(5-methylisoxazol-4-yl)-N-(5-(trifluoromethyl)pyridin-2-yl)acrylamide], the IC50 stood at 0.49 µM.

In the case of `Cc1oncc1/C(O)=C(\C#N)C(=O)Nc1ccc(C(=O)Nc2ccccc2)cc1` [Example 67, (Z)-4-(2-cyano-3-hydroxy-3-(5-methylisoxazol-4-yl)acrylamido)-N-phenylbenzamide], the IC50 was determined as 0.42 µM.

`Cc1oncc1/C(O)=C(\C#N)C(=O)Nc1nccc(-c2ccccc2)n1` [Example 68, (Z)-2-cyano-3-hydroxy-3-(5-methylisoxazol-4-yl)-N-(4-phenylpyrimidin-2-yl)acrylamide]: the IC50 amounted to 0.21 µM.

`Cc1oncc1/C(O)=C(\C#N)C(=O)Nc1cccc(C(=O)Nc2ccccc2)c1` [Example 69, (Z)-3-(2-cyano-3-hydroxy-3-(5-methylisoxazol-4-yl)acrylamido)-N-phenylbenzamide]: the IC50 amounted to 2 µM.

For the compound `Cc1oncc1/C(O)=C(\C#N)C(=O)Nc1ccc(C(=O)N[C@H]2CCN(Cc3ccccc3)C2)cc1` [Example 70, (S,Z)-N-(1-benzylpyrrolidin-3-yl)-4-(2-cyano-3-hydroxy-3-(5-methylisoxazol-4-yl)acrylamido)benzamide], the IC50 is 1 µM.

Regarding `Cc1oncc1/C(O)=C(\C#N)C(=O)Nc1cccc(NC(=O)c2ccccc2)c1` [Example 71, (Z)-N-(3-(2-cyano-3-hydroxy-3-(5-methylisoxazol-4-yl)acrylamido)phenyl) benzamide], the IC50 is 1.34 µM.

For the compound `Cc1oncc1/C(O)=C(\C#N)C(=O)Nc1ccc(C(=O)NCc2ccccc2)cc1` [Example 72, (Z)-N-benzyl-4-(2-cyano-3-hydroxy-3-(5-methylisoxazol-4-yl)acrylamido)benzamide], the IC50 worked out at 0.68 µM.

Turning to `Cc1oncc1/C(O)=C(\C#N)C(=O)Nc1ncc(OC2CCCCC2)cn1` [Example 73, (Z)-2-cyano-N-(5-(cyclohexyloxy)pyrimidin-2-yl)-3-hydroxy-3-(5-methylisoxazol-4-yl)acrylamide], the IC50 came out at 0.14 µM.

As for `Cc1oncc1/C(O)=C(\C#N)C(=O)Nc1ccc(Cc2ccccc2)cc1` [Example 74, (Z)-N-(4-benzylphenyl)-2-cyano-3-hydroxy-3-(5-methylisoxazol-4-yl)acrylamide], the IC50 was 1.5 µM.

On to `Cc1cc(NC(=O)/C(C#N)=C(\O)c2cnoc2C)ccc1C(F)(F)F` [Example 75, (Z)-2-cyano-3-hydroxy-N-(3-methyl-4-(trifluoromethyl)phenyl)-3-(5-methylisoxazol-4-yl)acrylamide], for which the IC50 was determined as 1.9 µM.

As for `COc1cc(NC(=O)/C(C#N)=C(\O)c2cnoc2C)ccc1C(F)(F)F` [Example 76, (Z)-2-cyano-3-hydroxy-N-(3-methoxy-4-(trifluoromethyl)phenyl)-3-(5-methylisoxazol-4-yl)acrylamide], the IC50 turned out to be 4.46 µM.

Regarding `Cc1oncc1/C(O)=C(\C#N)C(=O)Nc1ccc(C(=O)N(C)CC2CCCCC2)c(Cl)c1` [Example 77, (Z)-2-chloro-4-(2-cyano-3-hydroxy-3-(5-methylisoxazol-4-yl)acrylamido)-N-(cyclohexylmethyl)-N-methylbenzamide], the IC50 amounted to 2.52 µM.

As to `Cc1oncc1/C(O)=C(\C#N)C(=O)Nc1ccc(C(F)(F)F)c(C#N)c1` [Example 78, (Z)-2-cyano-N-(3-cyano-4-(trifluoromethyl)phenyl)-3-hydroxy-3-(5-methylisoxazol-4-yl)acrylamide], the IC50 was 1.64 µM.

As to `Cc1oncc1/C(O)=C(\C#N)C(=O)Nc1ncc(C2CCCCC2)cn1` [Example 79, (Z)-2-cyano-N-(5-cyclohexylpyrimidin-2-yl)-3-hydroxy-3-(5-methylisoxazol-4-yl)acrylamide], the IC50 came to 0.19 µM.

`COc1ccc(-c2cnc(NC(=O)/C(C#N)=C(\O)c3cnoc3C)nc2)cc1` [Example 80, (Z)-2-cyano-3-hydroxy-N-(5-(4-methoxyphenyl)pyrimidin-2-yl)-3-(5-methylisoxazol-4-yl)acrylamide]: the IC50 was found to be 0.61 µM.

Turning to `Cc1oncc1/C(O)=C(\C#N)C(=O)Nc1ncc(-c2ccccc2)cn1` [Example 81, (Z)-2-cyano-3-hydroxy-3-(5-methylisoxazol-4-yl)-N-(5-phenylpyrimidin-2-yl)acrylamide], the IC50 amounted to 0.67 µM.

Regarding `Cc1oncc1/C(O)=C(\C#N)C(=O)Nc1ncc(Oc2ccccc2)cn1` [Example 82, (Z)-2-cyano-3-hydroxy-3-(5-methylisoxazol-4-yl)-N-(5-phenoxypyrimidin-2-yl)acrylamide], the IC50 came to 0.3 µM.

`Cc1oncc1/C(O)=C(\C#N)C(=O)Nc1ccc(Oc2ccccc2)cn1` [Example 83, (Z)-2-cyano-3-hydroxy-3-(5-methylisoxazol-4-yl)-N-(5-phenoxypyridin-2-yl)acrylamide]: the IC50 worked out at 1.02 µM.

For `Cc1oncc1/C(O)=C(\C#N)C(=O)Nc1ncc(C(F)(F)F)cc1Cl` [Example 84, (Z)-N-(3-chloro-5-(trifluoromethyl)pyridin-2-yl)-2-cyano-3-hydroxy-3-(5-methylisoxazol-4-yl)acrylamide], the IC50 stood at 0.28 µM.

On to `Cc1oncc1/C(O)=C(\C#N)C(=O)Nc1ncc(OCC2CCCC2)cn1` [Example 85, (Z)-2-cyano-N-(5-(cyclopentylmethoxy)pyrimidin-2-yl)-3-hydroxy-3-(5-methylisoxazol-4-yl)acrylamide], for which the IC50 was found to be 0.16 µM.

As to `Cc1oncc1/C(O)=C(\C#N)C(=O)Nc1ncc(C#Cc2ccccc2)cn1` [Example 86, (Z)-2-cyano-3-hydroxy-3-(5-methylisoxazol-4-yl)-N-(5-(phenylethynyl)pyrimidin-2-yl)acrylamide], the IC50 stood at 0.48 µM.

With `Cc1oncc1/C(O)=C(\C#N)C(=O)Nc1nccc(CCc2ccccc2)n1` [Example 87, (Z)-2-cyano-3-hydroxy-3-(5-methylisoxazol-4-yl)-N-(4-phenethylpyrimidin-2-yl)acrylamide], the IC50 is 0.24 µM.

`Cc1oncc1/C(O)=C(\C#N)C(=O)Nc1ncc(CC2CCCCC2)cn1` [Example 88, (Z)-2-cyano-N-(5-(cyclohexylmethyl)pyrimidin-2-yl)-3-hydroxy-3-(5-methylisoxazol-4-yl)acrylamide]: the IC50 worked out at 0.16 µM.

For `COCCOc1cnc(NC(=O)/C(C#N)=C(\O)c2cnoc2C)nc1` [Example 89, (Z)-2-cyano-3-hydroxy-N-(5-(2-methoxyethoxy)pyrimidin-2-yl)-3-(5-methylisoxazol-4-yl)acrylamide], the IC50 stood at 0.08 µM.
